Measured values published in ChEMBL document CHEMBL2057130, “Bruton's tyrosine kinase inhibitors: approaches to potent and selective inhibition, preclinical and clinical evaluation for inflammatory diseases and B cell malignancies” (J Med Chem, 2012).

Columns and labels:
[1] = Inhibition of anti-IgM-induced human B cell proliferation; assay type: functional, cell-based
Mus musculus [2] = assay: Antiarthritic effect in mouse CIA model assessed as inhibition of clinical arthritis scores dosed prophylactically through subcutaneous route; assay type: functional
[3] = Clearance in po dosed rat; assay type: ADME, organism-based; details: in vivo
[4] = Oral bioavailability in dosed rat; assay type: ADME, organism-based; details: in vivo
Blood [5] = assay: Inhibition of CD63 expression in human whole blood; assay type: functional, tissue-based
Macrophage [6] = assay: cells
Description: (§1) Inhibition of immobilized immune complex-stimulated TNFalpha production in macrophages

Splenocyte = assay: Inhibition of mouse B-cell splenocyte activation by cell proliferation assay; assay type: functional, cell-based
[7] = target: T1, Tyrosine-protein kinase BTK (Homo sapiens, UniProt Q06187)
Description: Inhibition of human BTK by enzymatic assay

Blood [8] = assay: Inhibition of IgM-stimulated CD69 expression in human whole blood; assay type: functional, tissue-based
Mus musculus [9] = assay: Inhibition of anti-IgD antibody stimulated CD69 expression in mouse CIA model dosed prophylactically at 3 to 100 mg/kg, po measured 24 hrs post dose; assay type: functional; details: dose mg/kg 3-100
Rattus norvegicus = assay: Inhibition of hypersensitive immune responses in rat passive cutaneous anaphylaxis model at 30 mg/kg; assay type: functional
Macrophage [10] = test system: Macrophage
Description: as §1

[11] = target: T1, Tyrosine-protein kinase BTK; assay: Inhibition of BTK in human Ramos cells by FLIPR assay; assay type: cell-based

T1 sequence (Q06187 whole entry): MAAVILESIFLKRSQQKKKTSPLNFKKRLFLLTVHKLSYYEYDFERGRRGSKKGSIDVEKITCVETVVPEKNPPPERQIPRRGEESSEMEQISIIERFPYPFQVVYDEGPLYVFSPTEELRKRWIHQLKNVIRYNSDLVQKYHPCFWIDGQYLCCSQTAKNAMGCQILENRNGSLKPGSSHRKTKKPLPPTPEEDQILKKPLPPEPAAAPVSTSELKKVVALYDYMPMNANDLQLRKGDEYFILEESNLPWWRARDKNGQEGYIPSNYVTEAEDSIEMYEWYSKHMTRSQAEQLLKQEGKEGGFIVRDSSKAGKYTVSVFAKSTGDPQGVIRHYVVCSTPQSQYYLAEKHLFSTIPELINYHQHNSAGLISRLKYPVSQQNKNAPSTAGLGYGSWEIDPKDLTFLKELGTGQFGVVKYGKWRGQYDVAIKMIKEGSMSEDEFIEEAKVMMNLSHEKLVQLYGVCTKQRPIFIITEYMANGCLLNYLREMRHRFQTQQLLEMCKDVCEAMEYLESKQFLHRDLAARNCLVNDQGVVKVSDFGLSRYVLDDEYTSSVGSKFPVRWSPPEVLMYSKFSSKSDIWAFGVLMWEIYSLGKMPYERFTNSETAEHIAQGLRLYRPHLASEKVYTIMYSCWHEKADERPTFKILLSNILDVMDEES
Description for Mast cell: Inhibition of IgE-Fce cross-linking induced histamine release in mast cells

Cc1c(NC(=O)c2ccc(C(C)(C)C)cc2)cccc1-c1cn(C)c(=O)c(Nc2ccc(C(=O)N3CCOCC3)cc2)n1
IC50 [1]: 42 nM | inhibition (INH) (Mus musculus [2]): >97% | CL/F [3]: 86 mL/min/kg | bioavailability [4]: < 1% | EC50 (Blood [5]): 1200 nM | IC50 (Macrophage [6]): 25 nM

Cc1ccccc1Nc1nc2cc(F)c(N(C)C(=O)/C=C/CN(C)C)cc2n2cncc12
IC50 (Splenocyte): 3.41 nM

Nc1ncnc2c1c(-c1ccc(Oc3ccccc3)cc1)nn2C1CCCC1
IC50 [7]: 8.2 nM

C=CC(=O)N1CCCC(c2c(Cl)c(-c3ccc(Oc4ccc(Cl)c(Cl)c4)c(OC)c3)c3c(N)ncnn23)C1 (stereo not given)
IC50 (Splenocyte): 130 nM

CC(C)(C)c1ccc(C(=O)Nc2cccc(-c3cn4ccnc4c(Nc4ccccc4)n3)c2)cc1
IC50 [7]: 400 nM

CN1CCN(c2ccc(Nc3cc(-c4cccc(N5CCOc6cc(C(C)(C)C)ccc6C5=O)c4CO)cn(C)c3=O)nc2)CC1
IC50 (Blood [8]; Homo sapiens, Blood): 4 nM

CN1CCN(c2ccc(Nc3cc(-c4cccc(-n5ccc6cc(C7CC7)cc(F)c6c5=O)c4CO)cn(C)c3=O)nc2)CC1
IC50 (Blood [8]): 17 nM | inhibition (INH) (Mus musculus [9]): 50% | inhibition in vivo at 30 mg/kg (Rattus norvegicus): 91% | IC50 (Macrophage [10]): 4 nM | IC50 (Mast cell): 29.2 nM

Cc1c(-c2ccc(C(N)=O)c3[nH]c4cc(C(O)CO)ccc4c23)cccc1-n1cnc2ccc(F)cc2c1=O (stereo not given)
IC50 [11]: 11 nM

CC(C)(C)c1ccc(C(=O)N[C@@H]2CCCN(c3nc(Nc4ccc(C(=O)N5CCNCC5)cc4)c4nccn4n3)C2)cc1
IC50 (Splenocyte): 56 nM

Cc1c(NC(=O)c2ccc(N(C)C)cc2)cccc1-c1nc(Nc2ccc(C(=O)N3CCOCC3)cc2)c2nccn2n1
IC50 [7]: 144 nM | IC50 (Splenocyte): 142 nM

Cc1c(NC(=O)c2ccc(N(C)C)cc2)cccc1-c1nc(Nc2ccc(C(=O)N3CCOCC3)cc2)c2ncc(N)n2n1
IC50 [7]: 30 nM | IC50 (Splenocyte): 32 nM

O=C(N[C@@H]1CCCN(c2ncnc3[nH]ccc23)C1)[C@H](Nc1ccccc1)C1CC1
IC50 [7]: < 100 nM

O=C(CNc1ccccc1S(=O)(=O)N1CCCCC1)N[C@@H]1CCCN(c2ncnc3[nH]ccc23)C1
IC50 [7]: < 100 nM

CN1CCC(=C2c3ccccc3C=Cc3ccccc32)CC1 [CYPROHEPTADINE]
inhibition in vivo at 30 mg/kg (Rattus norvegicus): 69%
